{
  "source": "patent US11850252B2",
  "about": "“Use of nor-ursodeoxycholic acid for reducing liver fat” (Dr. Falk Pharma GmbH, priority 2017, dated 2023)",
  "key": {"[1]": {"system": "Patients with a clinical diagnosis of non-alcoholic hepatic steatosis", "assay": "Ultrasound examination of the liver (steatosis hepatis grade), phase II clinical trial", "assay_type": "in vivo, human", "method": "(§1) A double-blinded, randomized, placebo-controlled phase II clinical trial was conducted as described in the following.\n(§2) Patients with a clinical diagnosis of non-alcoholic hepatic steatosis were randomized to a 12-week treatment period and a 4-week follow-up. Patients were divided into three groups. The first groups received 1,500 mg Nor-UDCA per day (6 capsules with 250 mg Nor-UDCA in each capsule). The second group received 500 mg Nor-UDCA per day (2 capsules with 250 mg Nor-UDCA in each capsule and 4 capsules with 250 mg placebo in each capsule). The third group received 6 capsules with 250 mg placebo in each capsule.\nThe ultrasound examination was performed at V1 or within 4 weeks before and 1 week after V1 and at V6.\nThe liver was scored by the most affected area."}, "[2]": {"system": "Patients with a clinical diagnosis of non-alcoholic hepatic steatosis", "assay": "Hepatic fat fraction measured by MRI and/or MRS, phase II clinical trial", "assay_type": "in vivo, human", "method": "as §1, §2\nIf available, magnetic resonance imaging/spectroscopy (MRI/MRS) examinations were performed at V1 or within 4 weeks before and 1 week after V1 and at V6. Both, MRI and MRS are MR-based methods to separate the liver signal into its water and fat components. The resonance frequencies corresponding to protons in water and to the dominant protons in fat are distinct, and can be quantified directly from the spectral tracing.\nThe following equation was to be used to calculate the hepatic fat fraction derived from chemical shift imaging (CSI) data: CSI hepatic fat fractionunoorrected=SIin phase−SIopposed phase/2×SIin phase\nTo account for signal intensity differences not dependent of the fat content, a region of interest was also placed in the spleen in the same image as the liver measurements were performed. To calculate the signal-intensity corrected (using the spleen measurements) hepatic fat fraction, the equation above will be adopted as follows: CSI hepatic fat fractionspleen correction=(SIin phase liver/SIspleen)−(SIopposed phase liver/SIspleen)/2×(SIin phase liver/SIspleen)\nIf the calculations lead to negative mean hepatic fat fraction values, these negative values were considered as a fat fraction of 0, because a negative value is not possible.\nMRS were performed at 1.5 or 3.0 Tesla to determine hepatic triglyceride content (in %)."}, "[3]": {"system": "acyl coenzyme A synthetase", "conditions": "in contrast to UDCA; cited from earlier work"}, "[4]": {"system": "mouse models of obesity and steatosis", "conditions": "cited from earlier work"}, "[5]": {"system": "experimental alcoholic steatohepatitis", "conditions": "preventive administration; compared to UDCA; Belonovskaya et al. (2013); cited from earlier work"}, "[6]": {"conditions": "N500 (500 mg Nor-UDCA per day), V1 screening"}, "[7]": {"conditions": "N500 (500 mg Nor-UDCA per day), V6 week 12"}, "[8]": {"conditions": "N1500 (1,500 mg Nor-UDCA per day), V1 screening"}, "[9]": {"conditions": "N1500 (1,500 mg Nor-UDCA per day), V6 week 12"}},
  "note": "Several values for one entry are separate records, joined by “and”; a condition that tells them apart may be missing. Equal entries are not always repeated. Where two headings read alike, the source gives them in different places.",
  "data": [
    {"compound": "CC(CC(=O)O)[C@H]1CCC2[C@H]3C(CC[C@@]21C)[C@@]1(C)CCC(O)C[C@H]1C[C@@H]3O", "note": "(some centres unmarked) [Nor-UDCA, 24-nor-ursodeoxycholic acid]", "values": [
      {"measurement": "Number (%) of patients, steatosis hepatis grade Mild steatosis (S1)", "setting": "[1]; [6]", "result": 21.2, "unit": "%"},
      {"measurement": "Number (%) of patients, steatosis hepatis grade Moderate steatosis (S2)", "setting": "[1]; [6]", "result": 45.5, "unit": "%"},
      {"measurement": "Number (%) of patients, steatosis hepatis grade No/minimal steatosis (S0)", "setting": "[1]; [6]", "result": 6.1, "unit": "%"},
      {"measurement": "Number (%) of patients, steatosis hepatis grade Severe steatosis (S3)", "setting": "[1]; [6]", "result": 27.3, "unit": "%"},
      {"measurement": "Number (%) of patients, steatosis hepatis grade Mild steatosis (S1)", "setting": "[1]; [7]", "result": 28.8, "unit": "%"},
      {"measurement": "Number (%) of patients, steatosis hepatis grade Moderate steatosis (S2)", "setting": "[1]; [7]", "result": 51.5, "unit": "%"},
      {"measurement": "Number (%) of patients, steatosis hepatis grade No/minimal steatosis (S0)", "setting": "[1]; [7]", "result": 3.0, "unit": "%"},
      {"measurement": "Number (%) of patients, steatosis hepatis grade Severe steatosis (S3)", "setting": "[1]; [7]", "result": 16.7, "unit": "%"},
      {"measurement": "Number (%) of patients, steatosis hepatis grade Mild steatosis (S1)", "setting": "[1]; [8]", "result": 26.6, "unit": "%"},
      {"measurement": "Number (%) of patients, steatosis hepatis grade Moderate steatosis (S2)", "setting": "[1]; [8]", "result": 53.1, "unit": "%"},
      {"measurement": "Number (%) of patients, steatosis hepatis grade No/minimal steatosis (S0)", "setting": "[1]; [8]", "result": 0.0, "unit": "%"},
      {"measurement": "Number (%) of patients, steatosis hepatis grade Severe steatosis (S3)", "setting": "[1]; [8]", "result": 20.3, "unit": "%"},
      {"measurement": "Number (%) of patients, steatosis hepatis grade Mild steatosis (S1)", "setting": "[1]; [9]", "result": 26.6, "unit": "%"},
      {"measurement": "Number (%) of patients, steatosis hepatis grade Moderate steatosis (S2)", "setting": "[1]; [9]", "result": 62.5, "unit": "%"},
      {"measurement": "Number (%) of patients, steatosis hepatis grade No/minimal steatosis (S0)", "setting": "[1]; [9]", "result": 0.0, "unit": "%"},
      {"measurement": "Number (%) of patients, steatosis hepatis grade Severe steatosis (S3)", "setting": "[1]; [9]", "result": 10.9, "unit": "%"},
      {"measurement": "Hepatic fat fraction measured by MRI and/or MRS, Mean ± SD", "setting": "[2]; [6]", "result": "14.6 ± 14.5", "unit": "%"},
      {"measurement": "Hepatic fat fraction measured by MRI and/or MRS, Mean ± SD", "setting": "[2]; N500 (500 mg Nor-UDCA per day), V6-LOCF week 12", "result": "15.5 ± 13.5", "unit": "%"},
      {"measurement": "Hepatic fat fraction measured by MRI and/or MRS, Mean ± SD", "setting": "[2]; [8]", "result": "21.3% and 21.3 ± 15.4%"},
      {"measurement": "Hepatic fat fraction measured by MRI and/or MRS, Mean ± SD", "setting": "[2]; N1500 (1,500 mg Nor-UDCA per day), V6-LOCF week 12", "result": "16.3% and 16.3 ± 14.4%"},
      {"measurement": "decrease in the hepatic fat fraction", "setting": "[2]; group receiving 500 mg", "result": "no substantial decrease"},
      {"measurement": "N-acyl amidation with taurine or glycine", "setting": "[3]", "result": "only minimal"},
      {"measurement": "substrate for acyl coenzyme A synthetase", "setting": "[3]", "result": "poor substrate"},
      {"measurement": "reduction in ALT", "setting": "[4]; mouse model of obesity and steatosis, Steinacher et al. (2015)", "result": "significant reduction"},
      {"measurement": "reduction in ALT", "setting": "[4]; mouse models of obesity and steatosis, Steinacher et al. (2017)", "result": "considerable reduction"},
      {"measurement": "preventing the accumulation of triglycerides in the liver", "setting": "[5]", "result": "most effective"}
    ]}
  ]
}
